Results on three molecules are retold here after patent publication US9623109B2, “Methods of killing cells and use of same in prevention and treatment of cancer” (Yissum Research Development Company of the Hebrew …, priority 2008, dated 2017).

One data set concerns the target CKI-delta (Homo sapiens, UniProt P48730). The note with it: cited from earlier work.
The target in the next data set is CKI-epsilon (Homo sapiens, UniProt P49674). The note with it: cited from earlier work.
Another data set relates to CKIα KO mice. In words: Sulindac feeding of CKIα knockout mice (gut phenotype, qRT-PCR, Western, IHC, SA-β-gal). It counts as in vivo, mouse. The protocol: Tamoxifen (Sigma) was dissolved in Corn Oil (Sigma) to a 20 mg/ml concentration. Mice at 2-3 months were injected subcutaneously with 2 mg Tamoxifen per injection, 5-7 injections every other day, over a 10-14 day period. Mice were sacrificed 4-5 days after the last injection. The colon and part of the small intestine were taken for histology, together with the stomach, liver, pancreas, spleen, kidney, heart and lung. Enterocytes (intestinal epithelial cells) were isolated from most of the small intestine. Enterocytes were used for RNA and protein assays.
All tissues were fixated in 4% formaldehyde for 24 hours, paraffin embedded and sectioned at 5 μm for hematoxylin/eosin (H&E) staining and immunohistochemistry. BrdU (Amersham) was injected intraperitonally at 100 μl/10 g body weight, 2 hours prior to sacrifice. The primary antibodies used were goat anti-CKIα (1:100; Santa Cruz), rabbit anti-Cleaved Caspase-3 (1:100; Cell Signaling), rabbit CM5 (anti-mouse p53) (1:400; Novocastra), mouse anti-β-catenin (1:200; BD transduction), mouse anti-BrdU (1:100; NeoMarkers), rabbit anti-Cyclin D1 (1:125; Lab Vision), mouse anti-p21 (1:50; Santa Cruz), mouse anti-γH2AX (Ser139) (1:100; Upstate), mouse anti-IL-8 (1:125; Bender), rabbit anti-Ki67 (1:300; NeoMarkers). The secondary antibodies used for immunohistochemistry were HRP-polymer anti-Rabbit and anti-Goat (Nichirei), HRP-polymer Mouse on Mouse kit (Nichirei), Mach2 anti mouse-HRP polymer (Biocare) and Mouse-Envision Plus (Dako). HRP was visualized with DAB chromogen (Thermo Scientific) and nuclear counterstain was hemotoxylin (BioOptica). The secondary antibody used for immunofluorescence was goat anti mouse Alexa-488 (1:1000; Molecular Probes). The nuclear counterstain used for immunofluorescence was Hoechst (1.5 μg/ml, Molecular Probes).
For enterocyte isolation, ˜⅔ of the small intestine was washed and minced into small pieces in PBS/1 mM DTT. Intestine was separated into single cells in Ca^2+, Mg^2+ free HBSS containing 10 mM HEPES, 5 mM EDTA and 0.5 mM DTT, at 37° C. for 30 minutes with slow agitation. Lysate was mixed vigorously and cell suspension was centrifuged. Cell pellets were frozen in liquid N2 and stored at −80° C. Protein was extracted from cell pellets in cell lysis buffer containing protease and phosphatase inhibitors. Primary antibodies used in Western blotting were goat-anti CKIα (1:100; Santa Cruz), mouse anti-CKIε (1:250; Santa Cruz), mouse anti-β-catenin (1:2500; BD transduction), rabbit anti-Phospho-β-catenin (Thr41/Ser45) (1:750, Cell Signaling), rabbit CM5 (anti-mouse p53) (1:400; Novocastra), mouse anti-human p53 (1:20; DO-1 hybridoma), rabbit anti-Phospho-p53 (Ser15) (1:1000; Cell Signaling), rabbit anti-Cyclin D1 (1:300; Lab Vision), rabbit anti-Cyclin D2 (1:1000; Santa Cruz), rabbit-anti Bax (1:200; Santa Cruz), mouse anti-MdmX (1:1000; Sigma), goat anti-MdmX (1:200; Santa Cruz), mouse anti-GSK3β (1:2500; BD transduction) rabbit anti-Cleaved Caspase-3 (1:1000; Cell Signaling), rabbit anti-PARP (1:1000; Cell Signaling), mouse anti-p21 (1:200; Santa Cruz), mouse anti-E2F1 (1:500, Santa Cruz), mouse anti-γH2AX (Ser139) (1:1000; Upstate), rabbit anti-Phospho-Chk2 (Thr68) (1:1000; Cell Signaling), rabbit anti-Hsp90 (1:5000; Calbiochem). Secondary antibodies used in Western blotting were HRP-conjugated, goat anti-rabbit, goat anti-mouse and rabbit anti-goat (1:10,000; Jackson). ECL (Amersham) was used for HRP detection. […]

The subject of data set [1] is RKO colorectal carcinoma cells. Kind of data set: CKIδ/ε or CKIδ shRNA knockdown in RKO colorectal carcinoma cells (DNA damage response). It counts as cell-based. The following applies: CKIδ depletion, human colorectal carcinoma cell line, FIG. 21. The protocol: FIG. 21 is a photograph illustrating the DNA damage response (DDR) upon CKIδ/ε ablation.
For enterocyte isolation, ˜⅔ of the small intestine was washed and minced into small pieces in PBS/1 mM DTT. Intestine was separated into single cells in Ca^2+, Mg^2+ free HBSS containing 10 mM HEPES, 5 mM EDTA and 0.5 mM DTT, at 37° C. for 30 minutes with slow agitation. Lysate was mixed vigorously and cell suspension was centrifuged. Cell pellets were frozen in liquid N2 and stored at −80° C. Protein was extracted from cell pellets in cell lysis buffer containing protease and phosphatase inhibitors. […]
RKO and HCT116 cells were cultured in Dulbecco's modified Eagle's medium, supplemented with 10% fetal calf serum (Sigma). […] CKIα expression levels were determined before each experiment to ensure adequate knockdown. […]

Chain of CKI-epsilon (P49674 whole entry): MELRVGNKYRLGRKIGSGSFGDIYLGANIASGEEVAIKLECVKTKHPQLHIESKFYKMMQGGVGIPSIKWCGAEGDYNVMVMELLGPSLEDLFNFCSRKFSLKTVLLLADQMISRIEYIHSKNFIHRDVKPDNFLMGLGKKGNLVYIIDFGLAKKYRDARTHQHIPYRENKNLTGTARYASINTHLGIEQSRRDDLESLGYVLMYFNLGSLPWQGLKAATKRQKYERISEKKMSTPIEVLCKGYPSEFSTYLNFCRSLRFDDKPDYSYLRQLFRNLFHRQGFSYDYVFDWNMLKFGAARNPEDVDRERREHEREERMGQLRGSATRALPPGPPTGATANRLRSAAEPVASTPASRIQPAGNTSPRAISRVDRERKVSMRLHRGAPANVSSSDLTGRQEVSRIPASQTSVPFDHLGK
Chain of CKI-delta (P48730 whole entry): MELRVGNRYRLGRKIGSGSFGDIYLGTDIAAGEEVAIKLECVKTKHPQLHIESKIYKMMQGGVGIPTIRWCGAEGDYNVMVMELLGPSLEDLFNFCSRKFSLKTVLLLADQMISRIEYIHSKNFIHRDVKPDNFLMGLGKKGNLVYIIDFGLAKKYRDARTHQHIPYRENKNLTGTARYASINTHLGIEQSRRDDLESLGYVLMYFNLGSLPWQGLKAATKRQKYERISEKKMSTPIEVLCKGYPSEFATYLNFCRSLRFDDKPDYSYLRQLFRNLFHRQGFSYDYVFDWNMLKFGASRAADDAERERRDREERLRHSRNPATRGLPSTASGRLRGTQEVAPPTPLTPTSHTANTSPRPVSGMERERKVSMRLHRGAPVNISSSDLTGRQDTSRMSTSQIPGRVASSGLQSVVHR

Turning to `COc1cc(OC)c(C=C2C(O)=Nc3ccccc32)c(OC)c1` [IC261], the “inhibition of CKI-delta” value on CKI-delta is reported as “specific inhibitor”. Further, on CKI-epsilon, the “inhibition of CKI-epsilon” value is given as “specific inhibitor”.
Turning to `CC1=C(CC(=O)O)c2cc(F)ccc2/C1=C\c1ccc([S+](C)[O-])cc1` (centres unmarked) [Sulindac], the “cell-non autonomous effects of CKIα deficiency” value in the data set on CKIα KO mice (CKIα KO mice, Sulindac in the drinking water, FIG. 14) is “prevents”. The “overall phenotype of the gut tissue: severity of dysplasia” value in the data set on CKIα KO mice (CKIα knockout mice fed Sulindac) was “greatly reduced”. In the data set on CKIα KO mice (CKIα knockout mice fed Sulindac for the duration of the experiment), the “markers for Wnt activation, inflammation, senescence and cell growth arrest, including CyclinD1, Troy, Cox2, SA-β-gal and p21” value is listed as “significant reduction”. In the data set with CKIα KO mice (intestines of CKIα KO mice treated with Sulindac, FIG. 13), the “p53-independent senescence phenotype (SA β-gal) induced by CKIα deletion” value is recorded as “reversed”. The “clusters of cells with high grade dysplasia in the villi” value with CKIα KO mice (sulindac fed CKIα KO mice, never found in control mutant mice) was “many clusters of cells were found with high grade dysplasia”.
In the case of “CKIδ shRNA: shRNA sequence for CKIδ alone (SEQ ID NO: 5), from Open Biosystems, cloned in pLKO vector (CCGGCCCATCGAAGTGTTGTGTAAACTCGAGTTTACACAACACTTCGATGGGTTTTT)”, the p53 protein result in data set [1] was “induced p53 stabilization”.
